From patent publication US11091478B2 (Fochon Pharmaceuticals, Ltd., priority 2017, dated 2021)

Columns and labels:
[1] = test system: DOHH2 cells; experiment: Cell proliferation assay (MTS), DOHH2 cells, 120 h; type: cell-based; conditions: Homo sapiens, DOHH-2, 120 h
How it was run: (§1)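 Treatment lasts 72 h for RS4;11 and 120 h for DOHH2 cells seeded at 5000 per well in serum-containing RPMI-1640. A 2 h MTS step, halted with 10% SDS, precedes dual-wavelength absorbance reading and IC50 fitting.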

[2] = test system: RS4;11 cells; experiment: Cell proliferation assay (MTS), RS4;11 cells, 72 h; type: cell-based; conditions: Homo sapiens, RS4-11, 72 h
How it was run: as §1

SMILES: CC1(C)CCC(CN2CCN(c3ccc(C(=O)NS(=O)(=O)c4cc5c(c([N+](=O)[O-])c4)N[C@H](CC4CCNCC4)CO5)c(Oc4cnc5[nH]ccc5c4)c3)CC2)=C(c2ccc(Cl)cc2)C1 [Example 2-214, (R)-2-((1H-pyrrolo[2,3-b]pyridin-5-yl)oxy)-4-(4-((4′-chloro-5,5-dimethyl-3,4,5,6-tetra-hydro-[1,1′-biphenyl]-2-yl)methyl)piperazin-1-yl)-N-((5-nitro-3-(piperidin-4-ylmethyl)-3,4-dihydro-2H-benzo[b][1,4]oxazin-7-yl)sulfonyl)benzamide]
- IC50 [1]: 465 nM
- IC50 [2]: 16 nM

SMILES: CC1(C)CCC(CN2CCN(c3ccc(C(=O)NS(=O)(=O)c4cc5c(c([N+](=O)[O-])c4)N[C@@H](C4CCC(C)(O)CC4)CO5)c(Oc4cnc5[nH]ccc5c4)c3)CC2)=C(c2ccc(Cl)cc2)C1 (stereo partly drawn) [Example 2-215, (S)-2-((1H-pyrrolo[2,3-b]pyridin-5-yl)oxy)-4-(4-((4′-chloro-5,5-dimethyl-3,4,5,6-tetra-hydro-[1,1′-biphenyl]-2-yl)methyl)piperazin-1-yl)-N-((3-(4-hydroxy-4-methylcyclohex-yl)-5-nitro-3,4-dihydro-2H-benzo[b][1,4]oxazin-7-yl)sulfonyl)benzamide]
- IC50 [1]: 65 nM
- IC50 [2]: 3 nM

SMILES: CC1(C)CCC(CN2CCN(c3ccc(C(=O)NS(=O)(=O)c4cc5c(c([N+](=O)[O-])c4)N[C@@H](CC4CCC(C)(O)CC4)CO5)c(Oc4cnc5[nH]ccc5c4)c3)CC2)=C(c2ccc(Cl)cc2)C1 (stereo partly drawn) [Example 2-216, (S)-2-((1H-pyrrolo[2,3-b]pyridin-5-yl)oxy)-4-(4-((4′-chloro-5,5-dimethyl-3,4,5,6-tetra-hydro-[1,1′-biphenyl]-2-yl)methyl)piperazin-1-yl)-N-((3-((4-hydroxy-4-methylcyclohex-yl)methyl)-5-nitro-3,4-dihydro-2H-benzo [b][1,4]oxazin-7-yl)sulfonyl)benzamide]
- IC50 [1]: 268 nM
- IC50 [2]: 13 nM

SMILES: CC1(C)CCC(CN2CCN(c3ccc(C(=O)NS(=O)(=O)c4cc5c(c([N+](=O)[O-])c4)N[C@@H](CO)CO5)c(Oc4cnc5[nH]ccc5c4)c3)CC2)=C(c2ccc(Cl)cc2)C1 [Example 2-220, (S)-2-((1H-pyrrolo[2,3-b]pyridin-5-yl)oxy)-4-(4-((4′-chloro-5,5-dimethyl-3,4,5,6-tetra-hydro-[1,1′-biphenyl]-2-yl)methyl)piperazin-1-yl)-N-((3-(hydroxymethyl)-5-nitro-3,4-dihydro-2H-benzo[b][1,4]oxazin-7-yl)sulfonyl)benzamide]
- IC50 [1]: 36 nM
- IC50 [2]: 8 nM

SMILES: CC1(C)CCC(CN2CCN(c3ccc(C(=O)NS(=O)(=O)c4cc5c(c([N+](=O)[O-])c4)N[C@@H](CC4CCNCC4)CO5)c(Oc4cnc5[nH]ccc5c4)c3)CC2)=C(c2ccc(Cl)cc2)C1 [Example 2-221, (S)-2-((1H-pyrrolo[2,3-b]pyridin-5-yl)oxy)-4-(4-((4′-chloro-5,5-dimethyl-3,4,5,6-tetra-hydro-[1,1′-biphenyl]-2-yl)methyl)piperazin-1-yl)-N-((5-nitro-3-(piperidin-4-ylmethyl)-3,4-dihydro-2H-benzo[b][1,4]oxazin-7-yl)sulfonyl)benzamide]
- IC50 [1]: 474 nM
- IC50 [2]: 30 nM

SMILES: CC1(C)CCC(CN2CCN(c3ccc(C(=O)NS(=O)(=O)c4cc5c(c([N+](=O)[O-])c4)N[C@H](C4CCN(C(=O)OC(C)(C)C)CC4)CO5)c(Oc4cnc5[nH]ccc5c4)c3)CC2)=C(c2ccc(Cl)cc2)C1 [Example 2-222, tert-btuyl (R)-4-(7-(N-(2-((1H-pyrrolo[2,3-b]pyridin-5-yl)oxy)-4-(4-((4′-chloro-5,5-dimethyl-3,4,5,6-tetrahydro-[1,1′-biphenyl]-2-yl)methyl)piperazin-1-yl)benzoyl)sulfamoyl)-5-nitro-3,4-dihydro-2H-benzo[b][1,4]oxazin-3-yl) piperidine-1-carboxylate]
- IC50 [1]: 3 nM
- IC50 [2]: 25 nM

SMILES: COC(=O)N1CCC([C@@H]2COc3cc(S(=O)(=O)NC(=O)c4ccc(N5CCN(CC6=C(c7ccc(Cl)cc7)CC(C)(C)CC6)CC5)cc4Oc4cnc5[nH]ccc5c4)cc([N+](=O)[O-])c3N2)CC1 [Example 2-223, methyl (R)-4-(7-(N-(2-((1H-pyrrolo[2,3-b]pyridin-5-yl)oxy)-4-(4-((4′-chloro-5,5-dimethyl-3,4,5,6-tetrahydro-[1,1′-biphenyl]-2-yl)methyl)piperazin-1-yl)benzoyl)sulfamoyl)-5-nitro-3,4-dihydro-2H-benzo[b][1,4]oxazin-3-yl) piperidine-1-carboxylate]
- IC50 [1]: 11 nM
- IC50 [2]: 1 nM

SMILES: CC(=O)N1CCC([C@@H]2COc3cc(S(=O)(=O)NC(=O)c4ccc(N5CCN(CC6=C(c7ccc(Cl)cc7)CC(C)(C)CC6)CC5)cc4Oc4cnc5[nH]ccc5c4)cc([N+](=O)[O-])c3N2)CC1 [Example 2-224, (R)-2-((1H-pyrrolo[2,3-b]pyridin-5-yl)oxy)-N-((3-(1-acetylpiperidin-4-yl)-5-nitro-3,4-dihydro-2H-benzo[b][1,4]oxazin-7-yl)sulfo-nyl)-4-(4-((4′-chloro-5,5-dimethyl-3,4,5,6-tetrahydro-[1,1′-biphenyl]-2-yl)methyl)piper-azin-1-yl)benzamide]
- IC50 [1]: 3 nM
- IC50 [2]: 4 nM

SMILES: CC1(C)CCC(CN2CCN(c3ccc(C(=O)NS(=O)(=O)c4cc5c(c([N+](=O)[O-])c4)N[C@H](C4CCN(S(C)(=O)=O)CC4)CO5)c(Oc4cnc5[nH]ccc5c4)c3)CC2)=C(c2ccc(Cl)cc2)C1 [Example 2-225, (R)-2-((1H-pyrrolo[2,3-b]pyridin-5-yl)oxy)-4-(4-((4′-chloro-5,5-dimethyl-3,4,5,6-tetra-hydro-[1,1′-biphenyl]-2-yl)methyl)piperazin-1-yl)-N-((3-(1-(methylsulfonyl)piperidin-4-yl)-5-nitro-3,4-dihydro-2H-benzo[b][1,4]oxazin-7-yl)sulfonyl)benzamide]
- IC50 [1]: 15 nM
- IC50 [2]: 2 nM

SMILES: CC1(C)CCC(CN2CCN(c3ccc(C(=O)NS(=O)(=O)c4cc5c(c([N+](=O)[O-])c4)N[C@H](C4CCNCC4)CO5)c(Oc4cnc5[nH]ccc5c4)c3)CC2)=C(c2ccc(Cl)cc2)C1 [Example 2-226, (R)-2-((1H-pyrrolo[2,3-b]pyridin-5-yl)oxy)-4-(4-((4′-chloro-5,5-dimethyl-3,4,5,6-tetra-hydro-[1,1′-biphenyl]-2-yl)methyl)piperazin-1-yl)-N-((5-nitro-3-(piperidin-4-yl)-3,4-dihydro-2H-benzo[b][1,4]oxazin-7-yl)sulfo-nyl)benzamide]
- IC50 [1]: 48 nM
- IC50 [2]: 10 nM

SMILES: CN1CCC([C@@H]2COc3cc(S(=O)(=O)NC(=O)c4ccc(N5CCN(CC6=C(c7ccc(Cl)cc7)CC(C)(C)CC6)CC5)cc4Oc4cnc5[nH]ccc5c4)cc([N+](=O)[O-])c3N2)CC1 [Example 2-227, (R)-2-((1H-pyrrolo[2,3-b]pyridin-5-yl)oxy)-4-(4-((4′-chloro-5,5-dimethyl-3,4,5,6-tetra-hydro-[1,1′-biphenyl]-2-yl)methyl)piperazin-1-yl)-N-((3-(1-methylpiperidin-4-yl)-5-ni-tro-3,4-dihydro-2H-benzo[b][1,4]oxazin-7-yl)sulfonyl)benzamide]
- IC50 [1]: 6 nM
- IC50 [2]: 1 nM

SMILES: CC1(C)CCC(CN2CCN(c3ccc(C(=O)NS(=O)(=O)c4cc5c(c([N+](=O)[O-])c4)N[C@@H](C4CCN(C(=O)OC(C)(C)C)CC4)CO5)c(Oc4cnc5[nH]ccc5c4)c3)CC2)=C(c2ccc(Cl)cc2)C1 [Example 2-229, tert-butyl (S)-4-(7-(N-(2-((1H-pyrrolo[2,3-b]pyridin-5-yl)oxy)-4-(4-((4′-chloro-5,5-dimethyl-3,4,5,6-tetrahydro-[1,1′-biphenyl]-2-yl)meth-yl)piperazin-1-yl)benzoyl)sulfamoyl)-5-nitro-3,4-dihydro-2H-benzo[b][1,4]oxazin-3-yl)piperidine-1-carboxylate]
- IC50 [1]: 1 nM
- IC50 [2]: 38 nM

SMILES: COC(=O)N1CCC([C@H]2COc3cc(S(=O)(=O)NC(=O)c4ccc(N5CCN(CC6=C(c7ccc(Cl)cc7)CC(C)(C)CC6)CC5)cc4Oc4cnc5[nH]ccc5c4)cc([N+](=O)[O-])c3N2)CC1 [Example 2-230, methyl (S)-4-(7-(N-(2-((1H-pyrrolo[2,3-b]pyridin-5-yl)oxy)-4-(4-((4′-chloro-5,5-dimethyl-3,4,5,6-tetrahydro-[1,1′-biphenyl]-2-yl)methyl)piperazin-1-yl)benzoyl)sulfamoyl)-5-nitro-3,4-dihydro-2H-benzo[b][1,4]oxazin-3-yl) piperidine-1-carboxylate]
- IC50 [1]: 2 nM
- IC50 [2]: 1 nM

SMILES: CC(=O)N1CCC([C@H]2COc3cc(S(=O)(=O)NC(=O)c4ccc(N5CCN(CC6=C(c7ccc(Cl)cc7)CC(C)(C)CC6)CC5)cc4Oc4cnc5[nH]ccc5c4)cc([N+](=O)[O-])c3N2)CC1 [Example 2-231, (S)-2-((1H-pyrrolo[2,3-b]pyridin-5-yl)oxy)-N-((3-(1-acetylpiperidin-4-yl)-5-nitro-3,4-dihydro-2H-benzo[b][1,4]oxazin-7-yl)sulfonyl)-4-(4-((4′-chloro-5,5-dimethyl-3,4,5,6-tetrahydro-[1,1′-biphenyl]-2-yl)methyl)pi-perazin-1-yl)benzamide]
- IC50 [1]: 5 nM
- IC50 [2]: 1 nM

SMILES: CC1(C)CCC(CN2CCN(c3ccc(C(=O)NS(=O)(=O)c4cc5c(c([N+](=O)[O-])c4)N[C@@H](C4CCN(S(C)(=O)=O)CC4)CO5)c(Oc4cnc5[nH]ccc5c4)c3)CC2)=C(c2ccc(Cl)cc2)C1 [Example 2-232, (S)-2-((1H-pyrrolo[2,3-b]pyridin-5-yl)oxy)-4-(4-((4′-chloro-5,5-dimethyl-3,4,5,6-tetra-hydro-[1,1′-biphenyl]-2-yl)methyl)piperazin-1-yl)-N-((3-(1-(methyslulfonyl)piperidin-4-yl)-5-nitro-3,4-dihydro-2H-benzo[b][1,4]oxazin-7-yl)sulfonyl)benzamide]
- IC50 [1]: 1 nM
- IC50 [2]: 6 nM
